According to patent publication US20060293374A1, “Substituted isothiazolones” (priority 2005, published 2006):

Key:
Neutrophil LTB4 [1] = assay: Neutrophil LTB4 assay (calcium ionophore challenge, EIA); format: cell-based; conditions: test concentration of 5 μM, human neutrophils, calcium ionophore 1 μM; for inhibition at 5 µM: Neutrophil, read-out: LTB4 percent inhibition
Experimental: Neutrophils purified from human blood were resuspended in HBSS buffer containing calcium and magnesium to a cell density of 1×10^6/mL. Purified neutrophils were then incubated with test compounds at a test concentration of 5 μM for 15 min at 37° C. Following incubation, the cells were challenged with calcium ionophore (1 μM final) for 15 minutes at 37° C. Negative control wells were incubated with equal volume of vehicle. The reaction was stopped by transferring the plate to ice for 5 minutes. The plate was centrifuged at 1500 RPM for 5 min at 4° C. LTB4 was calculated in cell free supernatants by EIA (Assay Design Inc).

[2] = system: TXB2 Released by Human Platelets; assay: Ionophore and arachidonic acid induced TXB2 released by human platelets (EIA); format: cell-based; conditions: human platelet-rich plasma; for IC50: challenge with calcium ionophore (10 μM) or arachidonic acid (50 μM); for inhibition at 1 µM: test concentration of 1 μM, calcium ionophore or arachidonic acid challenge, read-out: TXB2 percent inhibition
Experimental: Ionophore and Arachidonic Acid Induced TXB2 Released by Human Platelets
The plate was incubated for 15 minutes at 37° C. Following incubation, platelets were challenged with calcium ionophore (final 10 μM) or arachidonic acid (AA) (final 50 μM) and the plate was further incubated at 37° C. for 15 min. The plate was transferred to an ice bed for 5 min in order to stop the reaction. Supernatants were assayed for TXB2 production by EIA (Assay Design Inc) after diluting with assay buffer (Assay Design Inc).

[3] = system: PMA Induced Acute Ear Edema; assay: PMA induced acute ear edema (mouse); format: in vivo; conditions: ear punch weight 6 h after PMA; for % Inh (percent inhibition of edema): test compound applied topically at about 1% to about 10%, 10 min before PMA
Experimental: PMA Induced Acute Ear Edema
PMA was prepared […] in an acetone:water mixture (99:1). 10 μL of 200 ng/10 μL was applied to the left ears of the mice. Control mice received 10 μL of vehicle. Test compounds were dissolved in the vehicle and applied at a test concentration of from about 1% to about 10% (depending on solubility) at 10 min before PMA application. β-methasone (1%) was used as a control. Six hours after the PMA application, mice were sacrificed and 6 mm ear punch biopsies were removed and weighed to assess edema.

Neutrophil LTB4 [4] = assay: Neutrophil LTB4 assay (calcium ionophore challenge, EIA); format: cell-based; conditions: human neutrophils, calcium ionophore 1 μM

Compound	inhibition at 5 µM (Neutrophil LTB4 [1]) [%]	IC50 [2] [nM]	melting point [°C]	also measured
O=c1ccsn1Cc1cccc2ccccc12 [Cpd 2, 2-naphthalen-1-ylmethyl-isothiazol-3-one]	81	3000	121 to 125	–
O=c1cc(Cl)sn1Cc1sc2ccccc2c1Cl [Cpd 6, 5-chloro-2-(3-chloro-benzo[b]thiophen-2-ylmethyl)-isothiazol-3-one]	70	710	118 to 120	–
O=c1cc(Cl)sn1Cc1cc2ccccc2s1 [Cpd 7, 2-benzo[b]thiophen-2-ylmethyl-5-chloro-isothiazol-3-one]	95	460	101 to 103	–
O=c1ccsn1Cc1cc2ccccc2s1 [Cpd 9, 2-benzo[b]thiophen-2-ylmethyl-isothiazol-3-one]	84	1800	144 to 146	% Inh (percent inhibition of edema) [3]: 72%
O=c1cc(Cl)sn1Cc1ccc2c(c1)CCO2 [Cpd 16, 5-chloro-2-(2,3-dihydro-benzofuran-5-ylmethyl)-isothiazol-3-one]	97	250	100 to 102	–
O=c1cc(Cl)sn1Cc1ccc(-c2csnn2)cc1 [Cpd 21, 5-chloro-2-(4-[1,2,3]thiadiazol-4-yl-benzyl)isothiazol-3-one]	87	1000	152 to 154	–
Cc1nc(-c2ccc(Cn3sccc3=O)cc2)cs1 [Cpd 26, 2-[4-(2-methyl-thiazol-4-yl)-benzyl]-isothiazol-3-one]	–	400	150.5 to 152	IC50 (Neutrophil LTB4 [4]): 1700 nM
Cc1nc(-c2cccc(Cn3sccc3=O)c2)cs1 [Cpd 48, 2-[3-(2-methyl-thiazol-4-yl)benzyl]-isothiazol-3-one]	–	1500	–	IC50 (Neutrophil LTB4 [4]): 1500 nM
O=c1ccsn1Cc1cccc(-c2ccco2)c1 [Cpd 49, 2-(3-furan-2-yl-benzyl)-isothiazol-3-one]	100	1200	78 to 80	–
O=C(c1ccccc1)c1ccc(Cn2sccc2=O)cc1 [Cpd 51, 2-(4-benzoylbenzyl)-isothiazol-3-one]	90	1200	–	% Inh (percent inhibition of edema) [3]: 84%
O=c1cc(Cl)sn1Cc1ccc(-n2cccn2)cc1 [Cpd 56, 5-chloro-2-(4-pyrazol-1-yl)-benzyl-isothiazol-3-one]	–	800	–	LTB4 percent inhibition (Neutrophil LTB4 [1]): 48%
O=c1ccsn1Cc1ccc(-n2cc(Cl)cn2)cc1 [Cpd 57, 2-[4-(4-chloro-pyrazol-1-yl)-benzyl]-isothiazol-3-one]	100	3000	–	% Inh (percent inhibition of edema) [3]: 100%
O=c1ccsn1Cc1ccc(-n2cccn2)cc1 [Cpd 58, 2-(4-pyrazol-1-yl)-benzyl-isothiazol-3-one]	–	1000	–	LTB4 percent inhibition (Neutrophil LTB4 [1]): 100%
O=Cc1cccc(Cn2sc(Cl)cc2=O)c1 [Cpd 59, 5-chloro-2-(3-formylbenzyl)-isothiazol-3-one]	96	600	–	–
O=CC#Cc1cccc(Cn2sc(Cl)cc2=O)c1 [Cpd 60, [3-(5-chloro-3-oxo-3H-isothiazol-2-ylmethyl)-phenyl]-propynal]	100	–	–	inhibition at 1 µM [2]: 72%
O=c1cc(Cl)sn1Cc1nc(-c2cccs2)sc1Cl [Cpd 61, 5-chloro-2-(5-chloro-2-thiophen-2-yl-thiazol-4-ylmethyl)-isothiazol-3-one]	100	–	–	inhibition at 1 µM [2]: 49%
O=c1[nH]sc(Cl)c1Cc1csc(-c2cccs2)n1 [Cpd 62, 5-chloro-(2-thiophen-2-yl-thiazol-4-ylmethyl)-isothiazol-3-one]	96	800	–	–
O=c1ccsn1Cc1nc(-c2cccs2)sc1Cl [Cpd 63, 2-(5-chloro-2-thiophen-2-yl-thiazol-4-ylmethyl)-isothiazol-3-one]	86	–	–	inhibition at 1 µM [2]: 42%
O=c1ccsn1Cc1csc(-c2cccs2)n1 [Cpd 64, 2-(2-thiophen-2-yl-thiazol-4-ylmethyl)-isothiazol-3-one]	89	–	–	inhibition at 1 µM [2]: 39%
CC(=O)c1ccc(Cn2sc(Cl)c(Cl)c2=O)cc1 [Cpd 65, 4,5-dichloro-2-(4-acetylbenzyl)-isothiazol-3-one]	45	400	–	–
C[C@H]1C[C@H]2[C@@H]3CCC4=CC(=O)C=C[C@]4(C)[C@@]3(F)[C@@H](O)C[C@]2(C)[C@@]1(O)C(=O)CO [β-methasone, reference compound]	–	–	–	β-methasone control, percent inhibition of edema ([3]; β-methasone (1%) used as control): 100%
